Source: ChEMBL document CHEMBL5728023, “Inhibitors of TRPC6” (2020)

Biological target: T1, Short transient receptor potential channel 6 (Homo sapiens, UniProt Q9Y210)
T1 sequence (Q9Y210 whole entry): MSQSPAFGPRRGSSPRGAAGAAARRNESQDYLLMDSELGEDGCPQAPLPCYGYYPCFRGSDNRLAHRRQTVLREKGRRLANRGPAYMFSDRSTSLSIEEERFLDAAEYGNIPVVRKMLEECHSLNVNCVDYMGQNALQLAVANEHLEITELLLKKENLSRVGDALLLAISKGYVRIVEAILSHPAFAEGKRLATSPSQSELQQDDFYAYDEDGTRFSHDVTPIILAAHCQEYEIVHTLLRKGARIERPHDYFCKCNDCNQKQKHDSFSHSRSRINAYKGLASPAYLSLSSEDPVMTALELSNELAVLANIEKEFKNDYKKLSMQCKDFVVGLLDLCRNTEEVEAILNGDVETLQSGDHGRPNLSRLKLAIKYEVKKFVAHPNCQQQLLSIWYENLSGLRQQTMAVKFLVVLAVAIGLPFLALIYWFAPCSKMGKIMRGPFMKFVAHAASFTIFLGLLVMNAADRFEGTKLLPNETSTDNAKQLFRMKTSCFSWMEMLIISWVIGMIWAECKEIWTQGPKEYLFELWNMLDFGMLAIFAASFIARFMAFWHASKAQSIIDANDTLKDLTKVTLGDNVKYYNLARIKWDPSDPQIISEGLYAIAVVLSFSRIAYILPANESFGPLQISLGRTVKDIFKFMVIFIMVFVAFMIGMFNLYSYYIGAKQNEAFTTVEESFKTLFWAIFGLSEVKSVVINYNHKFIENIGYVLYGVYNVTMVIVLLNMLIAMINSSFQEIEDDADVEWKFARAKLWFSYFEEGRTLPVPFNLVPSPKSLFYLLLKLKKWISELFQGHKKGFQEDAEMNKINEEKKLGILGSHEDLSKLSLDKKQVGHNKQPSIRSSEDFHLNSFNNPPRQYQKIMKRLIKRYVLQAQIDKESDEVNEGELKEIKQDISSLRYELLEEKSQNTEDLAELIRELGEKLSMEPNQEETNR
Assay: High Throughput Screening Assay: This screening assay measures TRPC6 (transient receptor potential cation channel, subfamily C, member 6) ion channel activation via addition either of the commercially available DAG ligand analogue OAG (1-oleoyl-2-acetyl-sn-glycerol) or of the TRPC6 agonist 1-[1-(4,5,6,7,8-pentahydrocyclohepta[2,1-d]thiophen-2-ylcarbonyl)-4-piperidyl]-3-hydrobenzimidazol-2-one (GSK1702934A). The assay utilizes a FLIPR fluorescent calcium sensor 4-(6-Acetoxymethoxy-2,7-difluoro-3-oxo-9-xanthenyl)-4′-methyl-2,2′-(ethylenedioxy)dianiline-N,N,N′,N′-tetraacetic acid tetrakis(acetoxymethyl) ester (Fluo4/AM) […]. Changes (increases) in intracellular membrane calcium concentration potential as measured by the fluorescent signal increase during membrane depolarization provide a measurement of channel activity.The commercially available HEK293/TREx line (Invitrogen) was stably transfected with a TRPC6 construct and screened by conventional calcium imaging to find clones with TRPC6 expression following stimulation with 1 μg/ml tetracycline. These cells were maintained in the growth medium recommended by the manufacturer supplemented with 100 μg/ml hygromycin to promote retention of the TRPC6 construct. […]
Type: cell membranes

CCOc1cc(C(=O)N2C3CCC2CC(c2ccc(N)nn2)C3)ncc1Oc1ccc(F)cc1 (stereo unspecified)
IC50: 2100 nM
